What was measured:
[1] = biological target: T1, 5α-reductase type II (Homo sapiens, UniProt P31213); experiment: Inhibition of the 5α-reductase type II activity (HEK293 homogenate, 3H-testosterone to 3H-DHT); assay type: biochemical; settings: homogenate of HEK293 cells over expressing the enzyme
T1 construct: expressed in transfected cells; host or cells: HEK293 (homogenate)
T1 sequence (P31213 1-254): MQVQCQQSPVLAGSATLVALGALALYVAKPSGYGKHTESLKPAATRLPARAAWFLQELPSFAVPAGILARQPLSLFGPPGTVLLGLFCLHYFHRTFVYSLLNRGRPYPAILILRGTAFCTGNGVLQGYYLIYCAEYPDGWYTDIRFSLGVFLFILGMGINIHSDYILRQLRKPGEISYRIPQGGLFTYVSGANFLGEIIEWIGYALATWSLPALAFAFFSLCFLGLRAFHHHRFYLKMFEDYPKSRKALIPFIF
Protocol: The inhibition of the 5α-reductase type II activity by means of the liquid extract P9605 prepared according to example 1 was determined.
The assay was realized with a homogenate of HEK293 cells that over express the 5α-reductase type II (Reichert W., Hartmann R. W. and Jose J.; 2001, Journal Enzyme Inhibition, Vol. 16, 47-53).
The influence of the extract prepared according to the present invention and of the pure substance Cubebin on the activity of the 5α-reductase type II was determined by means of the measurement of the conversion of ^3H-testosterone in ^3H-DHT.
As control substance was used the known 5α-reductase inhibitor “Finasterid”.
All obtained datas are given in percents with regard to the solvent control (test without extract); there are given the average values with Standard deviation from 4 experiments with 3-fold repetition.

[2] = system: LNCap cells; experiment: Inhibition of the cell proliferation, LNCap cells; assay type: cell-based; settings: 4 days, 10% FBS culture medium, versus solvent control
Protocol: (§1) With the liquid extract P9605 prepared according to example 1 were carried out cell proliferation tests. As control was carried along a typical substance of content of the cubeben fruits, the lignan Cubebin.
(§2) For the measurement of the inhibition of the cell proliferation this extract was added to LNCap and to PC-3 cells. The so treated cells were cultivated during 4 days in 10% FES culture medium.
(§3) For comparison the pure lignan Cubebin, that is contained in the extract prepared according to the invention and according to example 1 in an amount up to 20 m/m of the dry substance, was added also to LNCap and to PC-3 cells. The so treated cells were cultivated during 4 days in 10 FBS culture medium.
(§4) Thereby it was proceeded according to T. Lindl, Zell- und Gewebekultur, 4th revised edition, 2000, Spektrum Akademischer Verlag, Heidelberg.
(§5) All obtained datas are given in percents with regard to the solvent control (test without extract and without Cubebin); there are given the average values with Standard deviation from 4 experiments with 3-fold repetition.

[3] = system: androgen receptor; experiment: Amount of androgen receptor by Western-blot analysis; assay type: cell-based; settings: 2 days, 10% FBS
Protocol: The influence of the generation of androgen receptors by means of the liquid extract P9605 prepared according to example 1 was determined.
Thereby in one experiment LNCap cells were cultivated during 2 days in 10% FBS culture medium to which were added different concentrations either of the extract prepared according to the present invention or of the pure substance Cubebin.
Then was determined the change of the amount of the androgen receptor by means of the Western-blot analysis.
In FIG. 10 are shown the bands of the androgen receptor.

[4] = system: PC-3 cells; experiment: Inhibition of the cell proliferation, PC-3 cells; assay type: cell-based; settings: PC-3, 4 days, 10% FBS culture medium, versus solvent control
Protocol: as §1, §2, §3, §4, §5

[5] = system: prostate specific antigen (PSA); experiment: Secretion of the prostate specific antigen (immuno-assay, PSA/DNA); assay type: cell-based; settings: LNCap, 2 days, 10% CSS, different concentrations
[6] = system: LNCap cells; settings: control value at zero extract; cited from earlier work
[7] = system: LNCap cells; experiment: Apoptosis immuno-assay (mono and oligonucleosomes); assay type: cell-based; settings: 2 days, 10% FBS
Protocol: The induction of apoptosis by means of the liquid extract P9605 prepared according to example 1 was determined.
As preliminary test was added for the measurement of the induction of apoptosis the tumor necrosis factor TNF-α alone as well as in combination with 100 nM dihydrotestosterone, abbreviated with DHT, to LNCap cells. The so treated cells were cultivated during 2 days in 10% FBS culture medium.
The apoptosis of the cells was measured by applying a commercial apoptosis-immuno-assay-kit in which are detected specifically the DNA and histon fragments that are present as mono and oligonucleosomes.
Analogous experiments were carried out with DHT alone as well as in combination with 10 μg/ml of the extract prepared according to the present invention.

[8] = system: LNCap cells; settings: control value at zero extract; cited from earlier work; remark: listed apart in the source

Molecule: CC(C)(C)NC(=O)[C@H]1CC[C@H]2[C@@H]3CC[C@H]4NC(=O)C=C[C@]4(C)[C@H]3CC[C@]12C [Finasterid]
- inhibitive effect on the activity of the 5α-reductase type II [1]: inhibiting effect

Molecule: OC1OC[C@H](Cc2ccc3c(c2)OCO3)[C@H]1Cc1ccc2c(c1)OCO2 (mixture of isomers) [Cubebin]
- anti-proliferate effect on LNCap cells [2]: anti-proliferate effect on LNCap and PC-3 cells in dependency of the respective dose
- androgen receptor denseness in LNCap cells [3]: reduced increasingly in dependency of the dose
- IC50-value, 5α-reductase type II [1]: 9.9 µg/mL
- inhibitive effect on the activity of the 5α-reductase type II [1]: inhibitive effect
- anti-proliferate effect on PC-3 cells [4]: anti-proliferate effect on LNCap and PC-3 cells in dependency of the respective dose
- inhibition of the secretion of PSA (PSA/DNA) [5]: inhibit the secretion of the prostate specific antigen (PSA) in dependency of the respective dose

Molecule: C[C@]12CCC(=O)C[C@@H]1CC[C@@H]1[C@@H]2CC[C@]2(C)[C@@H](O)CC[C@@H]12 [DHT, dihydrotestosterone]
- effect of DHT on the DNA synthesis [6]: enhances the DNA synthesis
- effect on the TNF-α induced apoptosis ([7]; TNF-α in combination with 100 nM DHT): revoked completely or nearly completely
- effect of DHT on the cell proliferation [8]: enhances the cell proliferation

Molecule: TNF-α
- induction of apoptosis ([7]; TNF-α alone): induces the apoptosis of the tumor cells in dependency of the dose

Source: US8404286B2, “Use of extracts or of extract compounds from Piper cubeba L. as active components in a medicament for the treatment of cancer” (Viridis Pharmaceutical Limited, priority 2007, dated 2013)
